Experimental data as given in patent US8735432B2, “N-(Heteroaryl)-1-heteroarylalky1-1H-indole-2-carboxamide derivatives, preparation and therapeutic use thereof” (Sanofi, priority 2005, dated 2014).

Legend:
[1] = molecular target: T1, TRPV1 receptors (Mus musculus, UniProt Q704Y3); assay: Test of mouse corneal irritation (capsaicin ocular instillation); format: in vivo; settings: percentage of protection, pretreatment time t = 1 h, capsaicin 2 μl of 160 μM in the eye
T1 construct: from tissue; host or cells: living mouse, cornea (C fibres)
Method: Test of Mouse Corneal Irritation
The irritant nature of capsaicin is readily assessed on the cornea since this organ is one of the organs most densely innervated with C fibres. In this context, from preliminary experiments, the application of a very small amount of capsaicin (2 μl at a concentration of 160 μM) to the surface of the cornea of an animal leads to a certain number of stereotypic behavioral traits associated with irritation, which are easy to detect. Among these, the following are noted: blinking of the eye, rubbing of the instilled eye with the ipsilateral front paw, rubbing of the face with both front paws, scratching of the ipsilateral face with the hind paw. […] This aspect is moreover also normal. […]
In practice, the test product is administered orally and, with a delay (pretreatment time: t) that depends on the pharmacokinetic data, the animal receives an ocular instillation of 2 μl of a 160 μM capsaicin solution prepared as indicated above. During a 2-minute observation following the instillation, the number of times the instilled eye is rubbed with the ipsilateral front paw is recorded.
For a given animal, the percentage of protection is calculated as follows: P=100−((number of scratching actions observed/mean number of scratching actions for the group treated with the solvent)×100) […]

[2] = molecular target: T2, TRPV1 receptor (Rattus norvegicus, UniProt O35433); assay: Inhibition of the current induced with capsaicin on rat DRGs (whole-cell patch-clamp); format: cell-based; settings: DRG neuron; compound at 3 nM; inhibition of control capsaicin response (300 nM); newborn rat DRG neurons; read-out: % inhibition as a DRG patch
T2 construct: The neurons of the DRG naturally express the TRPV1 receptor; endogenous in cells; host or cells: primary culture of newborn rat dorsal root ganglion neurons
Method: Test of Inhibition of the Current Induced with Capsaicin on Rat DRGs
Primary Culture of Rat Dorsal Root Ganglion (DRG) Cells:
The neurons of the DRG naturally express the TRPV1 receptor.
The primary cultures of newborn rat DRGs are prepared using 1-day-old rats. Briefly, after dissection, the ganglions are trypsinized and the cells dissociated by mechanical trituration. The cells are resuspended in an Eagle basal culture medium containing 10% fetal calf serum, 25 mM KCl, 2 mM glutamine, 100 μg/ml gentamicin and 50 ng/ml of NGF, and then deposited on glass slides coated with laminin (0.25×10^6 cells per slide), which are then placed in Corning 12-well dishes. The cells are incubated at 37° C. in a humidified atmosphere containing 5% CO2 and 95% air. […]
The measuring chambers (volume 800 μl) containing the cell preparation are placed on the platform of an inverted microscope (Olympus IMT2) equipped with Hoffman optics (Modulation Contrast, New York) and observed at a magnification of 400×. […] The overall currents (membrane potential set at −60 mV) are recorded with an Axopatch 1D amplifier (Axon Instruments, Foster City, Calif.), connected to a PC running the Pclamp8 software (Axon Instrument). The current plots are recorded on paper and simultaneously digitized (sampling frequency 15 to 25 Hz) and acquired on the hard drive of the PC. […]

T1 sequence (Q704Y3 whole entry): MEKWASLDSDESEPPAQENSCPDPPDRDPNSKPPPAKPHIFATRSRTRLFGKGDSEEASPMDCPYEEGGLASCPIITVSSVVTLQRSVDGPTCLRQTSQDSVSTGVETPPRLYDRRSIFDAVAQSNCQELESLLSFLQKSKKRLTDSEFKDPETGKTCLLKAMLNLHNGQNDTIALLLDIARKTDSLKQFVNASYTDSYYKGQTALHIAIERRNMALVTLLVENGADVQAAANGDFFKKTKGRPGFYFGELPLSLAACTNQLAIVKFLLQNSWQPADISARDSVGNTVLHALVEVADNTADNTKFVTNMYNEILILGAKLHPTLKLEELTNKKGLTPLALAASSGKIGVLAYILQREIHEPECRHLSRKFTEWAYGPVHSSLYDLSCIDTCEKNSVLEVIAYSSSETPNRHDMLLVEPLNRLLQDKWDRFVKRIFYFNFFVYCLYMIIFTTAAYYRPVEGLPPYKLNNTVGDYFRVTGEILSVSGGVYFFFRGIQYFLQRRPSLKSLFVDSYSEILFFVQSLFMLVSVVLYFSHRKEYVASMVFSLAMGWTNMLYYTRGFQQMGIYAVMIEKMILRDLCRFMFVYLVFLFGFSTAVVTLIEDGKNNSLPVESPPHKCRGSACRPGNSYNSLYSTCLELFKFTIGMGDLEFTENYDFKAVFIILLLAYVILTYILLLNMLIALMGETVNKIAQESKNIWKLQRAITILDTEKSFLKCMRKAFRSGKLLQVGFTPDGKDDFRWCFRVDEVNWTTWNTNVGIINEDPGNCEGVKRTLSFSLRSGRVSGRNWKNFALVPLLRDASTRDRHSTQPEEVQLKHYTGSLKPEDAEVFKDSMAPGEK
T2 sequence (O35433 whole entry): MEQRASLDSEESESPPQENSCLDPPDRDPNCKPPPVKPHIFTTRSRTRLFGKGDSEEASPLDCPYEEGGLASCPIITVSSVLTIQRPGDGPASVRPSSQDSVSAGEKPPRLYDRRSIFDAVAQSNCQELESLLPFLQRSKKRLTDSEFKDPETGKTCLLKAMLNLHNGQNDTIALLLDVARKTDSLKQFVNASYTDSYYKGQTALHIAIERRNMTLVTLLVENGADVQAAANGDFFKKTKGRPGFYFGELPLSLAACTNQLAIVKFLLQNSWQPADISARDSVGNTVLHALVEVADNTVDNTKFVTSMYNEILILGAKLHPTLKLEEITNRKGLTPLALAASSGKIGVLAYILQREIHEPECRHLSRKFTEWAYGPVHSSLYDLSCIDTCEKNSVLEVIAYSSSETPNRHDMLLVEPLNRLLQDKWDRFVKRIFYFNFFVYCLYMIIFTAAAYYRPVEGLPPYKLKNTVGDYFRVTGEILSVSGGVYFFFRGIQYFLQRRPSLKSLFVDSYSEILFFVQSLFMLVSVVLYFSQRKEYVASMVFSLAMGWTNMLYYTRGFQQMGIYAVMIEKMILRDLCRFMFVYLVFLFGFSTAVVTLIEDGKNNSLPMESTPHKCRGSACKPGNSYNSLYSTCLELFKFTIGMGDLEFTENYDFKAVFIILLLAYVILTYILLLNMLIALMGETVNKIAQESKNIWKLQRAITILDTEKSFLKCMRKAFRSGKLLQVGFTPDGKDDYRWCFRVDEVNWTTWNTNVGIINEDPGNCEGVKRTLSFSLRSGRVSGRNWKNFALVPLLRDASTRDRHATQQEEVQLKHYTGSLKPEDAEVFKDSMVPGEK

Structure (SMILES)	melting point [°C]	% P - (t) at 1 mg/kg (po) [1]	inhibition at 0.003 µM [2] [%]
Cc1ncc(Cn2c(C(=O)Nc3ccc4c(c3)nc(C)n4C)cc3cc(F)ccc32)nc1C	226 to 228	–	–
Cl.Cn1ccc2cc(NC(=O)c3cc4cc(F)ccc4n3Cc3ccncc3)ccc21 [Compound 3, N-(1-Methyl-1H-indol-5-yl)-5-fluoro-1-[(pyrid-4-yl)methyl]-1H-indole-2-carboxamide hydrochloride (1:1)]	–	44% - (1 h)	–
Cc1nc2cc(NC(=O)c3cc4cc(C(C)(C)C)ccc4n3Cc3ccncc3)ccc2n1C.Cl.Cl [Compound 6, N-(1,2-Dimethyl-1H-benzimidazol-5-yl)-5-t-butyl-1-[(pyrid-4-yl)methyl]-1H-indole-2-carboxamide hydrochloride (1:2)]	–	24% - (1 h)	80

Further lines, with some results ahead:

melting point [°C]	Structure (SMILES)	% P - (t) at 1 mg/kg (po) [1]	inhibition at 0.003 µM [2] [%]
269 to 275	Cc1cnc(C)c(Cn2c(C(=O)Nc3ccc4c(c3)nc(C)n4C)cc3cc(F)ccc32)n1	–	–
266 to 269	Cc1cnc(Cn2c(C(=O)Nc3ccc4c(c3)nc(C)n4C)cc3cc(F)ccc32)c(C)n1	–	–
